Test results as given in publication PMC11360180, “Enhancement of Antimicrobial Function by L/D-Lysine Substitution on a Novel Broad-Spectrum Antimicrobial Peptide, Phylloseptin-TO2: A Structure-Related Activity Research Study” (Pharmaceutics, 2024).
Where a SMILES comes first, the peptide text is derived from it. Where no end group is shown, it is not given here. [ ]: non-standard residue; d: D form.

How the values were obtained:
NCI-H460 = type: cell-based, human; conditions: 24 h
Description: (§1) The percentage of cancer cell survival after being treated with peptides was assessed with 3-(4,5-dimethylthiazol-2-yl-)-2,5-diphenyltetrazolium bromide (MTT). The principle is the reduction process of the yellow tetrazolium to DMSO-soluble formazan crystals caused by the metabolic capability of living cells. All the cancerous and normal cells were obtained from the American Type Culture Collection (Rockville, VA, USA). Human lung cancer NCI-H838 and NCI-H460 were cultured in Roswell Park Memorial Institute (RPMI)-1640 medium (Gibco, Paisley, UK) and mixed with 10% (v/v) fetal bovine serum (FBS) (Gibco, Campinas, Brazil) and 1% penicillin–streptomycin (Gibco, Grand Island, NY, USA) 89/10/1 v/v/v). U251MG and MCF-7 were cultured in Dulbecco’s Modified Eagle medium (DMEM) (Gibco, Paisley, UK) and mixed with 10% FBS and 1% penicillin–streptomycin. HCT 116 was cultured in McCoy’s 5A (modified) medium (Gibco, Paisley, UK) and mixed with 10% FBS and 1% penicillin–streptomycin. MRC-5 and HaCat were cultured in Minimum Essential Medium (MEM) (Gibco, Paisley, UK) and mixed with 10% FBS and 1% penicillin–streptomycin. Cells were cultured and seeded in a 96-well plate at a density of 8000 cells/well with the corresponding medium and incubated for 24 h at 37 °C with 5% CO2. After 24 h of incubation, the cells were starved with a serum-free medium for 4 h at 37 °C. Then, the cells were incubated with different concentrations of peptide solution in a serum-free medium from 1 nM to 100 µM at 37 °C for 24 h. Meanwhile, triton X-100 (0.1%) (Sigma-Aldrich, St. Louis, MO, USA) and PBS were chosen as positive and negative controls. After 10 µL of MTT (5 mg/mL) was added to each well away from light and incubated at 37 °C for 2 h, the formazan generated by mitochondria was dissolved with DMSO. The absorbance was detected at a wavelength of 570 nm by a Synergy HT plate reader (Bio-Tek, Shoreline, WA, USA).

MCF-7 = type: cell-based, human; conditions: 24 h
Description: as §1

U251MG = type: cell-based, human; conditions: 24 h
Description: as §1

NCI-H838 = type: cell-based, human; conditions: 24 h
Description: as §1

horse red blood cells = type: cell-based
Description: To assess the haemolytic activity of PSTO2 and its analogues, 2% fresh defibrinated horse red blood cells (TCS Biosciences Ltd., Buckingham, UK) were acquired after being washed and resuspended in sterile PBS. Each peptide was dissolved in PBS to prepare solutions with concentrations ranging from 2 µM to 1024 µM. Subsequently, 100 µL of each peptide solution was mixed with 100 µL of the red blood cell suspension. The red blood cells treated with 1% triton X-100 and sterile PBS in equivalent volumes were set up as the positive and negative control groups, respectively. Then, all the samples were incubated at 37 °C for 2 h. Thereafter, the samples were centrifuged at 900× g for 10 min. Finally, 100 µL of supernatant of each sample was transferred into a 96-well plate, and the absorbance was recorded by a Synergy HT plate reader (Bio-Tek, Shoreline, WA, USA) at a wavelength of 570. The following equation was used to calculate haemolysis activity:Haemolysis activity = (Sample absorbance − Ab)/(Ap − Ab) × 100% where Ab refers to the mean value of absorbance of the negative control (incubated with PBS only), and Ap refers to the mean absorbance value of the positive control (incubated with triton X-100).

[1] = system: E. coli (ATCC 8739) biofilm; type: cell-based, Escherichia coli; conditions: ATCC 8739, 24 h
Description: To test the anti-biofilm ability of PSTO2 and its analogues, three types of microorganisms (S. aureus ATCC® 6538, E. coli ATCC® 8739, and MRSA NCTC® 12493) were chosen. Tryptic soy broth (TSB) and Lysogeny broth (LB) were used to culture microorganisms. The peptide was dissolved in an autoclaved PBS solution and diluted into concentrations ranging from 51,200 µM to 100 µM. One µL of peptide solution of each concentration was added into a 96-well plate with 100 µL bacterium at 5 × 10^5 CFU/mL. The plate was incubated at 37 °C for 24 h, with shaking at 200 rpm. After overnight incubation, the planktonic bacteria were washed up. Then, 100 µL of methanol was used to fix the biofilms onto the bottom, and 100 µL of 0.1% crystal violet solution (Sigma-Aldrich, Gillingham, UK) was added to each well to stain the biofilms. After drying, 160 µL of acetic acid (30% in deionised water, Sigma-Aldrich, UK) was added to each well to dissolve the shaded parts. The absorbance was detected with the Synergy HT plate reader at λ = 595 nm.
For the MBEC assay, 100 µL of the bacterium of 5 × 10^5 CFU/mL was transferred into an empty 96-well plate, and the plate was incubated at 37 °C for 24 h to obtain the biofilms primarily. Then, the peptide solution from 512 µM to 1 µM was transferred into a corresponding well, followed by 24 h incubation at 37 °C, with shaking at 200 rpm. After this, the plate was handled using the identical method to the plate in the MBIC assay, and the absorbance of each well was detected with the Synergy HT plate reader at λ = 595 nm. The minimum concentration at which the peptide can eradicate the existing biofilm was recorded as the MBEC value.

CC[C@H](C)[C@H](NC(=O)[C@H](C)NC(=O)[C@@H](CCCCN)NC(=O)[C@@H]1CCCN1C(=O)[C@@H](NC(=O)[C@H](CC(C)C)NC(=O)[C@H](CO)NC(=O)[C@H](CC(C)C)NC(=O)[C@@H](N)Cc1ccccc1)[C@@H](C)CC)C(=O)N[C@@H](CCCCN)C(=O)N[C@@H](C)C(=O)N[C@H](C(=O)N[C@@H](CCCCN)C(=O)N[C@@H](C)C(=O)N[C@@H](CC(C)C)C(=O)N[C@@H](C)C(=O)N[C@@H](CCCCN)C(=O)N[C@H](CCCCN)C(=O)N[C@@H](CC(C)C)C(N)=O)C(C)C [SR2D10] (H-FLSLIP[dK]AIKAVKALAK[dK]L-NH2)
IC50 (NCI-H460): 7.7 µM | IC50 (MCF-7): 26.4 µM | IC50 (U251MG): 16.1 µM | IC50 (NCI-H838): 9.49 µM | HC10 (horse red blood cells): 75.24 | MBEC [1]: 64 µM | MBIC [1]: 32 µM

CC[C@H](C)[C@H](NC(=O)[C@H](C)NC(=O)[C@@H](CCCCN)NC(=O)[C@@H]1CCCN1C(=O)[C@@H](NC(=O)[C@H](CC(C)C)NC(=O)[C@H](CO)NC(=O)[C@H](CC(C)C)NC(=O)[C@@H](N)Cc1ccccc1)[C@@H](C)CC)C(=O)N[C@@H](CCCCN)C(=O)N[C@@H](C)C(=O)N[C@H](C(=O)N[C@@H](CO)C(=O)N[C@@H](C)C(=O)N[C@@H](CC(C)C)C(=O)N[C@@H](C)C(=O)N[C@@H](CCCCN)C(=O)N[C@@H](CCCCN)C(=O)N[C@@H](CC(C)C)C(N)=O)C(C)C [SRD7] (H-FLSLIP[dK]AIKAVSALAKKL-NH2)
IC50 (NCI-H460): 2.31 µM | IC50 (MCF-7): 15.2 µM | IC50 (U251MG): 13.9 µM | IC50 (NCI-H838): 3.32 µM | HC10 (horse red blood cells): 74.78 | MBEC [1]: 64 µM | MBIC [1]: 32 µM

FLSLIPKAIKAVKALAKKL-NH2 [SR2]
IC50 (NCI-H460): 5.92 µM | IC50 (MCF-7): 7.83 µM | IC50 (U251MG): 6.72 µM | IC50 (NCI-H838): 3.13 µM | HC10 (horse red blood cells): 6.53 | MBEC [1]: 16 µM | MBIC [1]: 8 µM

FLSLIPKAIKAVSALAKKL-NH2 [SR]
IC50 (NCI-H460): 3.07 µM | IC50 (MCF-7): 6.05 µM | IC50 (U251MG): 9.65 µM | IC50 (NCI-H838): 2.88 µM | HC10 (horse red blood cells): 12.60 | MBEC [1]: 16/16 μM | MBIC [1]: 16/16 μM
